ChEMBL document CHEMBL1148029, “Synthesis and radiopharmacological characterization of 2beta-carbo-2'-[18F]fluoroethoxy-3beta-(4-bromo-phenyl)tropane ([18F]MCL-322) as a PET radiotracer for imaging the dopamine transporter (DAT)” (Bioorg Med Chem, 2007)

Key:
[1] = tested on: Pancreas; test: Biodistribution in Wistar rat pancreas at 300 uCi, iv after 60 mins; assay type: ADME, organism-based; details: in vivo, 1 h
[2] = tested on: Femur; test: Biodistribution in Wistar rat femur at 300 uCi, iv after 5 mins; assay type: ADME, organism-based; details: in vivo
[3] = tested on: Adrenal; test: Biodistribution in Wistar rat adrenal gland at 300 uCi, iv after 20 mins; assay type: ADME, organism-based, Adrenal tissue; details: in vivo
[4] = tested on: Cortex; test: Biodistribution in Wistar rat cortex at 300 uCi, iv after 240 mins; assay type: ADME, organism-based; details: in vivo, 4 h
[5] = tested on: Femur; test: Biodistribution in Wistar rat femur at 300 uCi, iv after 60 mins; assay type: ADME, organism-based; details: in vivo, 1 h
[6] = tested on: Striatum; test: Biodistribution in Wistar rat striatum at 300 uCi, iv after 60 mins in presence of citalopram; assay type: ADME, organism-based; details: in vivo, 1 h
[7] = tested on: Cerebellum; test: Biodistribution in Wistar rat cerebellum at 300 uCi, iv after 60 mins in presence of GBR-12909; assay type: ADME, organism-based; details: in vivo, 1 h
[8] = tested on: Liver; test: Biodistribution in Wistar rat liver at 300 uCi, iv after 20 mins; assay type: ADME, organism-based; details: in vivo
[9] = tested on: Hippocampus; test: Biodistribution in Wistar rat hippocampus at 300 uCi, iv after 240 mins; assay type: ADME, organism-based; details: in vivo, 4 h
[10] = tested on: Cerebellum; test: Biodistribution in Wistar rat cerebellum at 300 uCi, iv after 20 mins; assay type: ADME, organism-based; details: in vivo
[11] = Biodistribution in Wistar rat hair and skin at 300 uCi, iv after 240 mins; assay type: ADME, organism-based; details: in vivo, 4 h
[12] = tested on: Thymus; test: Biodistribution in Wistar rat thymus at 300 uCi, iv after 120 mins; assay type: ADME, organism-based; details: in vivo, 2 h
[13] = Biodistribution in Wistar rat rest of brain at 300 uCi, iv after 120 mins; assay type: ADME, organism-based; details: in vivo, 2 h
[14] = tested on: Muscle tissue; test: Biodistribution in Wistar rat muscle at 300 uCi, iv after 120 mins; assay type: ADME, organism-based; details: in vivo, 2 h
[15] = tested on: Blood; test: Biodistribution in Wistar rat blood at 300 uCi, iv after 120 mins; assay type: ADME, organism-based; details: in vivo, 2 h
[16] = tested on: Cortex; test: Biodistribution in Wistar rat cortex at 300 uCi, iv after 60 mins in presence of nisoxetine; assay type: ADME, organism-based; details: in vivo, 1 h
[17] = tested on: Adrenal; test: Biodistribution in Wistar rat adrenal gland at 300 uCi, iv after 5 mins; assay type: ADME, organism-based, Adrenal tissue; details: in vivo
[18] = tested on: Liver; test: Biodistribution in Wistar rat liver at 300 uCi, iv after 120 mins; assay type: ADME, organism-based; details: in vivo, 2 h
[19] = Biodistribution in Wistar rat fat at 300 uCi, iv after 240 mins; assay type: ADME, organism-based, Adipose tissue; details: in vivo, 4 h
[20] = tested on: Plasma; test: Metabolic stability in Wistar rat plasma assessed as polar metabolite level at 1 mCi, iv after 60 mins; assay type: ADME, organism-based; details: in vivo, 1 h
[21] = tested on: Spleen; test: Biodistribution in Wistar rat spleen at 300 uCi, iv after 120 mins; assay type: ADME, organism-based; details: in vivo, 2 h
[22] = tested on: Cerebellum; test: Biodistribution in Wistar rat cerebellum at 300 uCi, iv after 60 mins in presence of nisoxetine; assay type: ADME, organism-based; details: in vivo, 1 h
[23] = Biodistribution in Wistar rat rest of brain at 300 uCi, iv after 20 mins; assay type: ADME, organism-based; details: in vivo
[24] = tested on: Plasma; test: Metabolic stability in Wistar rat plasma assessed as polar metabolite level at 1 mCi, iv after 240 mins; assay type: ADME, organism-based; details: in vivo, 4 h
[25] = tested on: Plasma; test: Metabolic stability in Wistar rat plasma assessed as polar metabolite level at 1 mCi, iv after 5 mins; assay type: ADME, organism-based; details: in vivo
[26] = tested on: Muscle tissue; test: Biodistribution in Wistar rat muscle at 300 uCi, iv after 5 mins; assay type: ADME, organism-based; details: in vivo
[27] = Biodistribution in Wistar rat rest of brain at 300 uCi, iv after 5 mins; assay type: ADME, organism-based; details: in vivo
[28] = tested on: Femur; test: Biodistribution in Wistar rat femur at 300 uCi, iv after 120 mins; assay type: ADME, organism-based; details: in vivo, 2 h
[29] = tested on: Plasma; test: Metabolic stability in Wistar rat plasma assessed as polar metabolite level at 1 mCi, iv after 10 mins; assay type: ADME, organism-based; details: in vivo
[30] = tested on: Testes; test: Biodistribution in Wistar rat testes at 300 uCi, iv after 20 mins; assay type: ADME, organism-based, Testis; details: in vivo

Work on CN1C2CCC1C(C(=O)OCC[18F])C(c1ccc(Br)cc1)C2 (stereo not given) yielded a Drug uptake [1] of 0.54 % ID/g, a Drug uptake [2] of 0.59 % ID/g and a Drug uptake [3] of 1.21 % ID/g. For the same compound, the Drug uptake [4] was 0.14 % ID/g, the Drug uptake [5] was 0.17 % ID/g and the Drug uptake [6] was 6.43 % ID/g. It also gave a Drug uptake [7] of 0.62 % ID/g, a Drug uptake [8] of 6.8 % ID/g and a Drug uptake [9] of 0.18 % ID/g. It also gave a Drug uptake [10] of 1.37 % ID/g, a Drug uptake [11] of 0.08 % ID/g and a Drug uptake [12] of 0.21 % ID/g. It also gave a Drug uptake [13] of 0.59 % ID/g, a Drug uptake [14] of 0.09 % ID/g and a Drug uptake [15] of 0.03 % ID/g. The Drug uptake [16] was 0.96 % ID/g, the Drug uptake [17] was 3.57 % ID/g and the Drug uptake [18] was 15.7 % ID/g. It also gave a Drug uptake [19] of 0.06 % ID/g, a Stability [20] of 85% and a Drug uptake [21] of 0.29 % ID/g. For the same compound, the Drug uptake [22] was 0.63 % ID/g, the Drug uptake [23] was 2.06 % ID/g and the Stability [24] was greater than 98%. It also gave a Stability [25] of 42%, a Drug uptake [26] of 0.42 % ID/g and a Drug uptake [27] of 2.53 % ID/g. For the same compound, the Drug uptake [28] was 0.1 % ID/g, the Stability [29] was 61% and the Drug uptake [30] was 0.45 % ID/g.
